Experimental data: patent US20140213445A1, “Use of Pesticidal Active 3-Arylquinazolin-4-One Derivatives in Soil Application Methods” (BASF SE, priority 2011, published 2014)

Experiments:
[1] = test system: 2-Spotted Spider Mite (Tetranychus urticae); experiment: Test B.1.1 Foliar assay 2-spotted spider mite on Sieva lima bean plants; type: in vivo; details: 120 h, test solution 100 ppm, infested lima bean plants dipped, counts after 5 days, read-out: mortality in comparison with untreated controls
Method: The active compounds were formulated in 50:50 (vol:vol) acetone:water and 100 ppm Kinetica™ surfactant.
At about 2 hours before treatment Sieva lima bean plants with primary leaves expanded to 7-12 cm were infested by placing on each a small piece from an infested leaf (with about 100 mites) taken from the main colony in order to allow the mites to move over to the test plant to lay eggs. The piece of leaf used to transfer the mites was removed. The newly-infested plants were dipped in the test solution and allowed to dry. The test plants were kept under fluorescent light (24 hour photoperiod) at about 25° C. and about 20-40% relative humidity. After 5 days mortality counts were made.

[2] = test system: Kanzawa Spider Mite (Tetranychus kanzawai); experiment: Test B.1.2 Foliar assay Kanzawa spider mite on potted cotton plants; type: in vivo; details: cotton plants sprayed, assessed after 24, 72 and 120 hours, read-out: mortality in comparison with untreated controls
[3] = test system: root-knot nematode (Meliodogyne spp.) juveniles; experiment: Test B.2.1 Tomato soil drench against root-knot nematode juveniles; type: in vivo; details: soil drench 0.75 mg active ingredient/plant, galls counted at 14 DAT
Method: Tomatoes were grown in potting soil until the approximate first true leaf stage (about 2 weeks after planting). Tomatoes were transplanted into play sand. Seven days after transplant, technical material of test compound was dissolved in acetone, and then water was added to achieve a final concentration of 50% acetone. 1 mL of solution was pipetted onto the tomato root zone. One day after treatment (DAT), each pot was infested with about 500 root-knot nematode (Meliodogyne spp.) juveniles in 1 ml distilled water. Immediately after infestation, plants were placed in the greenhouse. Plants were top watered and fertilized daily. At 14 DAT, the tomato roots were rinsed off, and the number of galls was counted. Replication was 5-times.

two spotted spider mites [4] = experiment: Test B.1.4 Seed treatment assay in cotton; type: in vivo; details: cotton seed coated 0.5 mg active ingredient/seed, assessed 4 days after release of mites
two spotted spider mites [5] = experiment: Test B.1.5 Seed treatment assay in cucumber; type: in vivo; details: cucumber seed coated 0.5 mg active ingredient/seed, assessed 4 days after release of mites
Method: Test solution comprising a compound of the present invention is prepared at desired concentration using water and acetone as organic solvent. Cucumber seeds are coated with such prepared test solution applied at the rate of 0.5 mg active ingredient/seed and sown to the pots. After plant emergence (eleven days after treatment & planting), a mixed population of two spotted spider mites is released onto the leaves.
Four days after the release of spider mites, the acaricidal efficacy is measured by means of the rating of the damage caused by spider mites.
Percent damage as lesions was visually assessed, and means were calculated for each treatment. Mean percent damage reduction relative to the solvent blank was calculated as 100−(mean % lesions in treatment/mean % lesions in Solvent blank)*100.

[6] = test system: two spotted spider mites (Tetranychus urticae); details: soil drench 4 mg active ingredient/plant, mites released 4 days after treatment, assessed 5 days after release

Row | Structure (SMILES) | mortality at 100 ppm [1] | mortality at 100 ppm [2] | mean percent reduction of galls in comparison with untreated controls [3] | mean percent damage reduction in the cotyledon stage (two spotted spider mites [4]) | mean percent damage reduction in the cotyledon stage (two spotted spider mites [5]) | mean percent damage reduction in comparison with untreated controls [6]
1 | Cc1cc(F)c(-n2cnc3ccc(F)cc3c2=O)cc1SCC(F)(F)F [CE.I.30, 6-Fluoro-3-[2-fluoro-4-methyl-5-2(2,2,2-trifluoroethylsulfanyl)-phenyl]-3H-quinazolin-4-one] | ≥ 70% |  |  |  |  | 
2 | Cc1cc(F)c(-n2cnc3ccc(F)cc3c2=O)cc1[S+]([O-])CC(F)(F)F (centres unmarked) [CE.I.31, 6-Fluoro-3-[2-fluoro-4-methyl-5-2(2,2,2-trifluoroethanesulfinyl)-phenyl]-3H-quinazolin-4-one] | ≥ 70% | ≥ 70% | at least 90% |  |  | 
3 | Cc1cc(F)c(-n2cnc3ccc(OC(F)(F)F)cc3c2=O)cc1SCC(F)(F)F [CE.I.32, 6-Trifluoromethoxy-3-[2-fluoro-4-methyl-5-2(2,2,2-trifluoroethylsulfanyl)-phenyl]-3H-quinazolin-4-one] | ≥ 70% |  |  |  |  | 
4 | Cc1cc(F)c(-n2cnc3ccc(OC(F)(F)F)cc3c2=O)cc1[S+]([O-])CC(F)(F)F (centres unmarked) [CE.I.33, 6-Trifluormethoxy-3-[2-fluoro-4-methyl-5-2(2,2,2-trifluoroethanesulfinyl)-phenyl]-3H-quinazolin-4-one] | ≥ 70% | ≥ 70% |  |  |  | 
5 | Cc1cc(F)c(-n2cnc3ccccc3c2=O)cc1SCC(F)(F)F [CE.I.34, 2-(2,2,2-trifluoroethylsufanyl)-4-(4-oxo-quinazolin-3-yl)-5-fluoro-toluol] | ≥ 70% | ≥ 70% |  |  |  | 
6 | Cc1cc(F)c(-n2cnc3ccccc3c2=O)cc1[S+]([O-])CC(F)(F)F (centres unmarked) [CE.I.35, 2-(2,2,2-trifluoroethylsufinyl)-4-(4-oxo-quinazolin-3-yl)-5-fluoro-toluol] | ≥ 70% | ≥ 70% |  | at least 90% | at least 50% | at least 70%
